Data: US12428403B2, “N-(heterocyclyl and heterocyclylalkyl)-3-benzylpyridin-2-amine derivatives as SSTR4 agonists” (Takeda Pharmaceutical Company Limited, priority 2020, dated 2025)

Experiments:
SSTR4 [1] = biological target: T1, SSTR4 (Homo sapiens, UniProt P31391); assay: SSTR4 I-125 somatostatin competition binding assay (CHO-K1 membranes); parameters: host or cells: CHO-K1; settings: competition with I-125 labeled somatostatin, membranes from CHO-K1 overexpressing SSTR4; read-out: SSTR4 Binding pIC50 (converted)
Description: SSTR4I-125 Somatostatin Competition Binding Assay
Membranes from CHO-K1 cells overexpressing SSTR4 are purchased from Perkin Elmer (catalog number ES-524-M400UA). […] The scintillator sheets are melted to filters using a heat block.

SSTR4 [2] = biological target: T1, SSTR4; assay: cell-based
Description: This cell-based assay measures the ability of compounds to inhibit forskolin stimulated cAMP in CHO-K1 cells overexpressing SSTR4. CHO-K1 cells overexpressing SSTR4 (CHO-SSTR4) are purchased from DiscoveRx (product code 95-0059C2). The CHO-SSTR4 cells are maintained in F12K media with 10% Fetal Bovine Serum (Hyclone), 1% Pen/Strep (Life Technologies), and 800 μg/mL G418 (Life Technologies). To perform the assay, 3000 cells are plated per well in white 384-well plate (Corning 3570) in 50 complete media and the cells are allowed to attach for 16 hours in a 37° C., 5% CO2 incubator. The next day, the culture media is removed from the cells and the cells are washed (added then removed) with Krebs Ringer Buffer (ZenBio, KRB-1000 mL). Test compounds are suspended in DMSO and diluted in stimulation buffer: Krebs Ringer Buffer plus 0.5% BSA (Roche), 300 μM IBMX (Sigma), and 350 nM forskolin (Sigma). The cells are incubated in 10 μL compound/stimulation buffer for 30 minutes at room temperature. Cellular cAMP levels are detected with a HTRF LANCE Ultra cAMP kit (Perkin Elmer, catalog number TRF0264).
The assay is performed in accordance with the manufacturer's instructions. Five μL of diluted Eu-W8044 labeled streptavidin (dilution: 1:50 in cAMP Detection Buffer) is added to each well. Then 5 μL of diluted biotin cAMP (dilution: 1:150 in cAMP Detection Buffer) is added to each well. The plates are covered and allowed to incubate for 60 minutes at room temperature on a shaker. HTRF (665 nm/615 nm) is read on a Perkin Elmer ENVISION plate reader. The pEC50 values are generated using Activity Base for Screening Data Management.

SSTR1 = SSTR1 (Homo sapiens, UniProt P30872); assay: biochemical;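 note: competitive binding to membranes of CHO-K1 cells overexpressing SSTR1, incubated 60 min at room temperature, radioactivity read by scintillation counting after filtration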
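Throughout, for EC50: CHO-K1 cells overexpressing SSTR4, reduction of forskolin-driven cAMP after 30 min compound exposure at room temperature, cAMP read by HTRF LANCE Ultra kit.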
Description: SSTR1 I-125 Somatostatin Competition Binding Assay for Selectivity Versus SSTR1
Membranes from CHO-K1 cells overexpressing SSTR1 are purchased from Perkin Elmer (catalog number ES-520-M400UA). Test compounds are suspended in DMSO and then diluted in assay buffer (25 mM HEPES pH 7.4, 10 mM MgCl2, 1 mM CaCl2, 0.5% BSA) plus 0.4 nM I-125 labeled somatostatin (Perkin Elmer catalog number NEX389). […] Then 10 μg of SSTR1 membranes in 50 μL assay buffer are added per well. The plate is incubated for 60 minutes at room temperature. […] The contents of the assay plate are transferred to filters with a TomTech harvester and washed 5 times with 20 mM HEPES, 100 mM NaCl. […] The scintillator sheets are melted to the filters using a heat block. The filters are then read in a MicroBeta scintillation counter. Binding Ki curves are generated using Activity Base for Screening Data Management and the results are reported as pIC50.

T1 sequence (P31391 whole entry): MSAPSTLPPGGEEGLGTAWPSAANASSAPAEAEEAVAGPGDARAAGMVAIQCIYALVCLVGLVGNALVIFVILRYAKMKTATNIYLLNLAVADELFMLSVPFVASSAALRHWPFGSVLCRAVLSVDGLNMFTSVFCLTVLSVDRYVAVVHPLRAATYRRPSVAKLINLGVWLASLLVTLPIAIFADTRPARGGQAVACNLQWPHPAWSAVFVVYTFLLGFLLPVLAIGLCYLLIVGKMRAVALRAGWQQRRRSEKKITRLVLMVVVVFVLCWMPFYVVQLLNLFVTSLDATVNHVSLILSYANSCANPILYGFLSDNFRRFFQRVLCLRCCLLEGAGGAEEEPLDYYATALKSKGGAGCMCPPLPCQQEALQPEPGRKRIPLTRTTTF
Chain of SSTR1 (P30872 whole entry): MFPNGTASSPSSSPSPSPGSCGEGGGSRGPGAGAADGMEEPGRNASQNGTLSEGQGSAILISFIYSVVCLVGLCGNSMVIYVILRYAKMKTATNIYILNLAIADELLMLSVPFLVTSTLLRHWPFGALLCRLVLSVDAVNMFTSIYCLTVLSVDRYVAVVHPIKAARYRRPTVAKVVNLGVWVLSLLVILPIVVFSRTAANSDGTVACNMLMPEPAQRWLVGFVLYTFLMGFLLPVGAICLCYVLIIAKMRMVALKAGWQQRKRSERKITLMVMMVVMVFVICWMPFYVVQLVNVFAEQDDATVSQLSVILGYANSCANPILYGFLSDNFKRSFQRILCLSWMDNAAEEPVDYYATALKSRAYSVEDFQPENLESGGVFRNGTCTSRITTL

Compound | IC50 (SSTR4 [1]) | EC50 (SSTR4 [2]) | IC50 (SSTR1)
CNC(=O)c1nc(Cc2ccc(F)cc2)c(N[C@@H]2CCN(C)C[C@H]2C)nc1C (racemic) [Example 46, 5-((trans-1,3-dimethylpiperidin-4-yl)amino)-6-(4-fluorobenzyl)-N,3-dimethylpyrazine-2-carboxamide] | 0.49 µM | 0.0724 µM | 14.5 µM
COc1cccc(Cc2nc3cccc(C)c3nc2NCCN2CCC2)c1 (single isomer, unassigned) [Example 4, N-(2-(azetidin-1-yl)ethyl)-3-(3-methoxybenzyl)-8-methylquinoxalin-2-amine] | 0.038 µM | 0.0631 µM | 1.55 µM
C[C@H](c1ccc(F)cc1)c1nc(C(N)=O)cnc1NCCN1CCCC1 (single isomer, unassigned) [Example 21] | 0.0245 µM | 0.00513 µM | 2.82 µM
CNC(=O)c1cnc(NCCN2CCCC2)c([C@@H](C)c2ccc(F)cc2)n1 (single isomer, unassigned) [Example 23] | 0.0631 µM | 0.0251 µM | 13.2 µM
C[C@H](c1ccc(F)cc1)c1nc(C(N)=O)cnc1N[C@@H]1CCN(C)C1 (single isomer, unassigned) [Example 30] | 0.912 µM | 0.049 µM | 12.3 µM
C[C@H](c1ccc(F)cc1)c1nccnc1NCCN1CCCC1 (single isomer, unassigned) [Example 121] | 0.0398 µM | 0.00437 µM | 1.38 µM
Cc1nnc([C@H](C)c2ccc(F)cc2)c(NCCN2CCC2)n1 (single isomer, unassigned) [Example 133] | 0.209 µM | 0.0427 µM | 30.2 µM
Cc1nnc([C@@H](C)c2ccc(F)cc2)c(NCCN2CCC2)n1 (single isomer, unassigned) [Example 134] | 0.0195 µM | 0.00219 µM | 15.1 µM
Cc1nnc([C@H](C)c2ccccc2)c(N[C@@H]2CCN(C)C2)n1 (single isomer, unassigned) [Example 149] | 0.174 µM | 0.0398 µM | 12.9 µM
Cc1nnc([C@@H](C)c2ccccc2)c(N[C@H]2CCN(C)C2)n1 (single isomer, unassigned) [Example 152] | 0.204 µM | 0.0269 µM | 10 µM
CO[C@H]1CCN(C(=O)c2cnc(NCCN3CCCC3)c([C@H](C)c3ccc(F)cc3)n2)C1 [Example 10, (6-((R)-1-(4-fluorophenyl)ethyl)-5-((2-(pyrrolidin-1-yl)ethyl)amino)pyrazin-2-yl)((S)-3-methoxypyrrolidin-1-yl)methanone] | 0.38 µM | 0.0269 µM | 3.16 µM
CO[C@@H]1CCN(C(=O)c2cnc(NCCN3CCCC3)c([C@H](C)c3ccc(F)cc3)n2)C1 [Example 11, (6-((R)-1-(4-fluorophenyl)ethyl)-5-((2-(pyrrolidin-1-yl)ethyl)amino)pyrazin-2-yl)((R)-3-methoxypyrrolidin-1-yl)methanone] | 0.214 µM | 0.0288 µM | 3.47 µM
C[C@H](c1ccc(F)cc1)c1nc(C(=O)NC2CCOCC2)cnc1NCCN1CCCC1 [Example 18, (R)-6-(1-(4-fluorophenyl)ethyl)-5-((2-(pyrrolidin-1-yl)ethyl)amino)-N-(tetrahydro-2H-pyran-4-yl)pyrazine-2-carboxamide] | 0.166 µM | 0.012 µM | 8.91 µM
Cc1cnc(-c2cnc(NCCN3CCCC3)c(C(C)c3ccc(F)cc3)n2)s1 (centres unmarked) [Example 127, 3-(1-(4-fluorophenyl)ethyl)-5-(5-methylthiazol-2-yl)-N-(2-(pyrrolidin-1-yl)ethyl)pyrazin-2-amine] | – | 0.224 µM | –
Cc1cnc(-c2cnc(NCCN3CCCC3)c(C(C)c3ccc(F)cc3)n2)n1C (centres unmarked) [Example 128, 5-(1,5-dimethyl-1H-imidazol-2-yl)-3-(1-(4-fluorophenyl)ethyl)-N-(2-(pyrrolidin-1-yl)ethyl)pyrazin-2-amine] | – | 0.0813 µM | –
Cc1nnc(Cc2ccc(F)cc2)c(NCCN2CCC2)n1 [Example 135, N-(2-(azetidin-1-yl)ethyl)-6-(4-fluorobenzyl)-3-methyl-1,2,4-triazin-5-amine] | – | 0.129 µM | –
Cc1nnc(Cc2ccc(F)cc2)c(NC2CCN(C)CC2)n1 [Example 137, 6-(4-fluorobenzyl)-3-methyl-N-(1-methylpiperidin-4-yl)-1,2,4-triazin-5-amine] | – | 0.141 µM | –

Further compounds by falling EC50 (SSTR4 [2]), results first:

IC50 (SSTR4 [1]) | EC50 (SSTR4 [2]) | IC50 (SSTR1) | Compound
0.129 µM | 0.038 µM | 18.2 µM | Cc1nc(N[C@@H]2CCN(C)C[C@H]2C)c(Cc2ccc(F)cc2)nc1C(N)=O (racemic) [Example 45, 5-((trans-1,3-dimethylpiperidin-4-yl)amino)-6-(4-fluorobenzyl)-3-methylpyrazine-2-carboxamide]
0.603 µM | 0.038 µM | 18.6 µM | Cc1nnc([C@H](C)c2ccccc2)c(NCCN2CCC2)n1 (single isomer, unassigned) [Example 144]
0.141 µM | 0.0316 µM | 1.95 µM | C[C@H](c1ccc(F)cc1)c1nc(C(=O)N2CCCC2)cnc1NCCN1CCCC1 [Example 8, (R)-(6-(1-(4-fluorophenyl)ethyl)-5-((2-(pyrrolidin-1-yl)ethyl)amino)pyrazin-2-yl)(pyrrolidin-1-yl)methanone]
0.0912 µM | 0.0275 µM | 10 µM | Cc1nnc([C@H](C)c2ccc(F)cc2)c(N[C@H]2CCN(C)C2)n1 (single isomer, unassigned) [Example 146]
0.0933 µM | 0.0214 µM | 25.7 µM | Cc1nnc([C@H](C)c2ccc(F)cc2)c(N[C@@H]2CCN(C)C2)n1 (single isomer, unassigned) [Example 141]
0.0457 µM | 0.0186 µM | 5.13 µM | CNC(=O)c1cnc(NCCN2CCCC2)c([C@H](C)c2ccc(F)cc2)n1 (single isomer, unassigned) [Example 24]
0.162 µM | 0.0151 µM | 5.62 µM | C[C@H](c1ccc(F)cc1)c1nc(C(=O)N[C@H]2CCOC2)cnc1NCCN1CCCC1 [Example 12, 6-((R)-1-(4-fluorophenyl)ethyl)-5-((2-(pyrrolidin-1-yl)ethyl)amino)-N-((S)-tetrahydrofuran-3-yl)pyrazine-2-carboxamide]
0.162 µM | 0.0117 µM | 4.07 µM | C[C@H](c1ccc(F)cc1)c1nc(C(=O)N[C@@H]2CCOC2)cnc1NCCN1CCCC1 [Example 13, 6-((R)-1-(4-fluorophenyl)ethyl)-5-((2-(pyrrolidin-1-yl)ethyl)amino)-N-((R)-tetrahydrofuran-3-yl)pyrazine-2-carboxamide]
0.162 µM | 0.0117 µM | 7.94 µM | C[C@H](c1ccc(F)cc1)c1nc(C(=O)N(C)C2CC2)cnc1NCCN1CCCC1 [Example 17, (R)-N-cyclopropyl-6-(1-(4-fluorophenyl)ethyl)-N-methyl-5-((2-(pyrrolidin-1-yl)ethyl)amino)pyrazine-2-carboxamide]
– | 0.00794 µM | – | CCc1nnc(Cc2cccc(C)c2)c(NCCN2CCC2)n1 [Example 130, N-(2-(azetidin-1-yl)ethyl)-3-ethyl-6-(3-methylbenzyl)-1,2,4-triazin-5-amine]
0.0251 µM | 0.00174 µM | 14.5 µM | Cc1nnc([C@@H](C)c2ccccc2)c(NCCN2CCC2)n1 (single isomer, unassigned) [Example 145]
